In patent publication US8426408B2, “Pyrimidine inhibitors of kinases” (AbbVie Inc., priority 2009, dated 2013) one finds Ki and IC50 data, which are given here for 17 compounds.

One assay concerns the target T1, Aurora A (Homo sapiens, UniProt O14965).
T1 sequence (O14965 1-403): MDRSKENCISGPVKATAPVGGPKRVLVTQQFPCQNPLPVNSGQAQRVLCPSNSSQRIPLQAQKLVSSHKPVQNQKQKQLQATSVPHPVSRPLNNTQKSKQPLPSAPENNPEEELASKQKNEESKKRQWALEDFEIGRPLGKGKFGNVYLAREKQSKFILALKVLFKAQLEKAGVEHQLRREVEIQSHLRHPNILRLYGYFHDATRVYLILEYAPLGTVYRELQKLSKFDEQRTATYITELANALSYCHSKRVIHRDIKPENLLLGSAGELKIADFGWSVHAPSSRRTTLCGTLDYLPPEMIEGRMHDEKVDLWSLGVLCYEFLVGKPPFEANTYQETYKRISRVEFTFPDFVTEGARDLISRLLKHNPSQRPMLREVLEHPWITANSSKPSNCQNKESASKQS
The experiment in a line: Aurora A enzyme inhibition (time-resolved fluorescence, STK substrate-2). The assay is classed as biochemical. The following applies: 1 mM ATP. The gist of the method:
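Active enzyme incubated 1 h with biotinylated STK substrate-2, 1 mM ATP and inhibitor in Hepes pH 7.4 with MgCl2, orthovanadate and Triton X-100. EDTA stop; phosphopeptide detected by Eu-cryptate anti-phospho-STK/SA-XL665 TR-FRET (665/615 nm ratio); IC50 by exponential fit.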

The target in the next assay is KDR (Homo sapiens, UniProt P35968). The experiment in a line: KDR cellular assay (KDR receptor phosphorylation ELISA). The format is cell-based. The following applies: KDR transfected 3T3 (embryonic mouse) cells, VEGF stimulated; read-out: IC50 inhibition of KDR phosphorylation. The arrangement: expressed in transfected cells; host or cells: 3T3 (embryonic mouse) cells. The gist of the method:
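KDR-transfected mouse 3T3 cells treated 20 min at 37° C with half-log compound dilutions, then stimulated 10 min with VEGF (100 ng/ml solution). Lysates captured on anti-KDR plates; phosphorylation by biotin antibody/streptavidin-HRP ELISA at 450 nm. IC50 by non-linear regression.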

For the next assay, the target named is T2, Aurora B (Homo sapiens, UniProt Q96GD4).
T2 construct: Active Aurora B enzyme (recombinant residues 1-344)
T2 sequence (Q96GD4 whole entry, the tested form may be a part): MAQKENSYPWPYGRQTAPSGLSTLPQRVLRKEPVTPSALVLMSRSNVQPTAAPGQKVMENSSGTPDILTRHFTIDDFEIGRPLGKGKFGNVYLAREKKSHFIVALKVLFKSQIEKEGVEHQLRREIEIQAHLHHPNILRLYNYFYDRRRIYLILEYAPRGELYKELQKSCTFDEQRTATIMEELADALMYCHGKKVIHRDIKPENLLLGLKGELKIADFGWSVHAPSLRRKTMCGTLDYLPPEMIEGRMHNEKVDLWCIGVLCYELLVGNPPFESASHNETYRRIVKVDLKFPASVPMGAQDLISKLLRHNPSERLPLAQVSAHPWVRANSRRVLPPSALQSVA
T2 sequence (Q9NQS7 826-918 partner limits assumed): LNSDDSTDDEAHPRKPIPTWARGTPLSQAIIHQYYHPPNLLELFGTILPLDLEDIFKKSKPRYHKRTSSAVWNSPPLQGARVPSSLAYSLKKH
The experiment in a line: Aurora B enzyme inhibition (time-resolved fluorescence, histone H3 peptide). The format is biochemical. To be noted: 1 mM ATP. The gist of the method: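 Recombinant Aurora B (residues 1-344) with GST-INCENP phosphorylated biotinylated histone H3 (1-21) peptide at 1 mM ATP in HEPES pH 7.4 with MgCl2, orthovanadate and Triton X-100 for 1 h. After EDTA stop, the phosphopeptide was detected by TR-FRET (Eu-cryptate anti-phospho-H3 / SA-APC, 665/615 nm ratio). IC50 from an exponential fit.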

A value given as a limit tells only on which side of the number the result lay.

A word on the Ki: it is the equilibrium dissociation constant of an inhibitor or competing ligand from its target. Read a low Ki as tighter binding. In general, IC50 refers to the concentration at which inhibition is half-maximal.

Sequence of KDR (P35968 20-1356): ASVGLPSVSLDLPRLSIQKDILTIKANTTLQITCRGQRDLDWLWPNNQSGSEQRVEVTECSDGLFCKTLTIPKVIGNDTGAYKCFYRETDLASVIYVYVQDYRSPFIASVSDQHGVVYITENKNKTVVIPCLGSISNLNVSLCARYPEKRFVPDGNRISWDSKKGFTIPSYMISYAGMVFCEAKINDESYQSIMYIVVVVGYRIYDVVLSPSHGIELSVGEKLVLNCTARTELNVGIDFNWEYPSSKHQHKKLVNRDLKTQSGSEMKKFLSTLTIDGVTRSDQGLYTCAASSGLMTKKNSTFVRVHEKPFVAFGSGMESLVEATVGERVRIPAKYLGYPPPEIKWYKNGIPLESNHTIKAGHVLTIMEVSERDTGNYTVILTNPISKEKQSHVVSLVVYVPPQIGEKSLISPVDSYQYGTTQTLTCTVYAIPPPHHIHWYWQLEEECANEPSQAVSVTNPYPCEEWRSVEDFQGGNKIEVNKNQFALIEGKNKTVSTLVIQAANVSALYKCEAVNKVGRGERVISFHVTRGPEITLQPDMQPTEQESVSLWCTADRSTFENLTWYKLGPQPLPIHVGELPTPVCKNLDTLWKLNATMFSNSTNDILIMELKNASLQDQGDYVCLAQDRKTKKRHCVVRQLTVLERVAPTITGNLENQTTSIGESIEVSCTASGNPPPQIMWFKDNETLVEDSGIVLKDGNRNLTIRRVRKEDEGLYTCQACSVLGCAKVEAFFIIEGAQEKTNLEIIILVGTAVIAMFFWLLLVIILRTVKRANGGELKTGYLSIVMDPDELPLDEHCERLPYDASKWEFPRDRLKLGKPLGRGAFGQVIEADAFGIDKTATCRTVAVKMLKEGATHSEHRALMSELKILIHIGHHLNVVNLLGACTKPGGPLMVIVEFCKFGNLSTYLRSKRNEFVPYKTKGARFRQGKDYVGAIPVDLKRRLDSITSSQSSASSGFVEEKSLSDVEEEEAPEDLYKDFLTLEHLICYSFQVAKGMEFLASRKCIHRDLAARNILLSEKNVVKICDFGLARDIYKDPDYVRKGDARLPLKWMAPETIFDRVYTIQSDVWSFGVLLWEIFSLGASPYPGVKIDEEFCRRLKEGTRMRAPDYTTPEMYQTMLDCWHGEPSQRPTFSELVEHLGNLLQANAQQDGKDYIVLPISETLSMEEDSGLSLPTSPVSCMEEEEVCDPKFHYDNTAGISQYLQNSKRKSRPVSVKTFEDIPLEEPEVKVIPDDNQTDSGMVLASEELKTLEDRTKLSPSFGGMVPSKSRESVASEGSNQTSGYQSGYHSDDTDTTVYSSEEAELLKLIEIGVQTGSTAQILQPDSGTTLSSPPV

On to `NC(=O)[C@@H]1[C@H](Nc2nc(Nc3cnn(CCc4cccc(Cl)c4)c3)ncc2Cl)[C@H]2C=C[C@@H]1C2` [Example 158, (1S,2S,3R,4R)-3-{[5-chloro-2-({1-[2-(3-chlorophenyl)ethyl]-1H-pyrazol-4-yl}amino)pyrimidin-4-yl]amino}bicyclo[2.2.1]hept-5-ene-2-carboxamide], for which the Ki at Aurora A and on Aurora B was under 100 nM throughout. Moreover, the IC50 on KDR lay within 100 to 1000 nM.

Turning to `Cc1cccc(Cn2cc(Nc3ncc(Cl)c(N[C@H]4[C@@H](C(N)=O)[C@@H]5C=C[C@H]4C5)n3)cn2)c1` [Example 178, (1S,2S,3R,4R)-3-[(5-chloro-2-{[1-(3-methylbenzyl)-1H-pyrazol-4-yl]amino}pyrimidin-4-yl)amino]bicyclo[2.2.1]hept-5-ene-2-carboxamide], the Ki at Aurora A and at Aurora B was under 100 nM each time. Further, on KDR, the IC50 was under 100 nM.

As for `Cn1cc(Nc2ncc(C(F)(F)F)c(Nc3ccccc3C3(O)CNC3)n2)cn1` [Example 109, 3-[2-({2-[(1-methyl-1H-pyrazol-4-yl)amino]-5-(trifluoromethyl)pyrimidin-4-yl}amino)phenyl]azetidin-3-ol], the Ki on Aurora A and on Aurora B was under 100 nM throughout. Besides, the IC50 on KDR was 100 to 1000 nM.

For the compound `NC(=O)[C@@H]1[C@H](Nc2nc(Nc3cnn(Cc4ccc5ccccc5c4)c3)ncc2Cl)[C@H]2C=C[C@@H]1C2` [Example 179, (1S,2S,3R,4R)-3-[(5-chloro-2-{[1-(2-naphthylmethyl)-1H-pyrazol-4-yl]amino}pyrimidin-4-yl)amino]bicyclo[2.2.1]hept-5-ene-2-carboxamide], the Ki on Aurora A and at Aurora B was under 100 nM in each case. Besides, the IC50 on KDR was under 100 nM.

Consider `NC(=O)[C@@H]1[C@H](Nc2nc(Nc3cnn(Cc4ccc(Cl)cc4)c3)ncc2Cl)[C@H]2C=C[C@@H]1C2` [Example 162, (1S,2S,3R,4R)-3-[(5-chloro-2-{[1-(4-chlorobenzyl)-1H-pyrazol-4-yl]amino}pyrimidin-4-yl)amino]bicyclo[2.2.1]hept-5-ene-2-carboxamide], for which the Ki on Aurora A and at Aurora B was under 100 nM in each case. In addition, the IC50 on KDR was under 100 nM.

On to `Cn1cc(Nc2ncc(Cl)c(N[C@@H]3[C@H](C(N)=O)[C@H]4CC[C@@H]3O4)n2)cn1.Cn1cc(Nc2ncc(Cl)c(N[C@H]3[C@@H](C(N)=O)[C@@H]4CC[C@H]3O4)n2)cn1` (mixture of isomers) [Example 141, (1S,2R,3S,4R)-3-({5-chloro-2-[(1-methyl-1H-pyrazol-4-yl)amino]pyrimidin-4-yl}amino)-7-oxabicyclo[2.2.1]heptane-2-carboxamide and (1R,2S,3R,4S)-3-({5-chloro-2-[(1-methyl-1H-pyrazol-4-yl)amino]pyrimidin-4-yl}amino)-7-oxabicyclo[2.2.1]heptane-2-carboxamide], for which the Ki on Aurora A and at Aurora B was under 100 nM each time. Further, the IC50 at KDR lay in the range of 100 to 1000 nM.

On to `CC(C)n1cc(Nc2ncc(Cl)c(N[C@H]3[C@@H](C(N)=O)[C@@H]4C=C[C@H]3C4)n2)cn1` [Example 98, (1S,2S,3R,4R)-3-({5-chloro-2-[(1-isopropyl-1H-pyrazol-4-yl)amino]pyrimidin-4-yl}amino)bicyclo[2.2.1]hept-5-ene-2-carboxamide], for which the Ki on Aurora A and at Aurora B was under 100 nM each time. At KDR, the IC50 is under 100 nM.

For `Cn1cc(Nc2ncc(Cl)c(N[C@@H]3CC[C@@H]3C(N)=O)n2)cn1.Cn1cc(Nc2ncc(Cl)c(N[C@H]3CC[C@H]3C(N)=O)n2)cn1` (mixture of isomers) [Example 151, (1S,2R)-2-({5-chloro-2-[(1-methyl-1H-pyrazol-4-yl)amino]pyrimidin-4-yl}amino)cyclobutanecarboxamide and (1R,2S)-2-({5-chloro-2-[(1-methyl-1H-pyrazol-4-yl)amino]pyrimidin-4-yl}amino)cyclobutanecarboxamide], the Ki on Aurora A and on Aurora B was under 100 nM each time. At KDR, the IC50 was 100 to 1000 nM.

Take `NC(=O)[C@@H]1[C@H](Nc2nc(Nc3cnn([C@H]4CCOC4)c3)ncc2Cl)[C@H]2C=C[C@@H]1C2` [Example 108, (1S,2S,3R,4R)-3-{[5-chloro-2-({1-[(3S)-tetrahydrofuran-3-yl]-1H-pyrazol-4-yl}amino)pyrimidin-4-yl]amino}bicyclo[2.2.1]hept-5-ene-2-carboxamide]: the Ki on Aurora A and at Aurora B was under 100 nM in each case. Moreover, the IC50 at KDR is under 100 nM.

With `NC(=O)[C@@H]1[C@H](Nc2nc(Nc3cnn(Cc4ccc(Cl)cc4)c3)ncc2Br)[C@H]2C=C[C@@H]1C2` [Example 172, (1S,2S,3R,4R)-3-[(5-bromo-2-{[1-(4-chlorobenzyl)-1H-pyrazol-4-yl]amino}pyrimidin-4-yl)amino]bicyclo[2.2.1]hept-5-ene-2-carboxamide], the Ki on Aurora A and at Aurora B was under 100 nM throughout. Further, the IC50 on KDR is under 100 nM.

With `NC(=O)[C@@H]1[C@H](Nc2nc(Nc3cnn(Cc4cccc(Cl)c4)c3)ncc2Cl)[C@H]2C=C[C@@H]1C2` [Example 157, (1S,2S,3R,4R)-3-[(5-chloro-2-{[1-(3-chlorobenzyl)-1H-pyrazol-4-yl]amino}pyrimidin-4-yl)amino]bicyclo[2.2.1]hept-5-ene-2-carboxamide], the Ki at Aurora A and on Aurora B was under 100 nM throughout. Also, at KDR, the concentration for half-maximal inhibition (IC50) is under 100 nM.

On to `CC(=O)N1CCC(n2cc(Nc3ncc(Cl)c(N[C@H]4[C@@H](C(N)=O)[C@@H]5C=C[C@H]4C5)n3)cn2)CC1` [Example 92, (1S,2S,3R,4R)-3-[(2-{[1-(1-acetylpiperidin-4-yl)-1H-pyrazol-4-yl]amino}-5-chloropyrimidin-4-yl)amino]bicyclo[2.2.1]hept-5-ene-2-carboxamide], for which the Ki at Aurora A and at Aurora B was under 100 nM throughout. For the same compound, the IC50 on KDR is 100 to 1000 nM.

`Cn1cc(Nc2ncc(Cl)c(N[C@@H]3[C@@H]4CC[C@@H](C4)[C@@H]3C(N)=O)n2)cn1.Cn1cc(Nc2ncc(Cl)c(N[C@H]3[C@H]4CC[C@H](C4)[C@H]3C(N)=O)n2)cn1` (mixture of isomers) [Example 113, (1R,2R,3S,4S)-3-({5-chloro-2-[(1-methyl-1H-pyrazol-4-yl)amino]pyrimidin-4-yl}amino)bicyclo[2.2.1]heptane-2-carboxamide and (1S,2S,3R,4R)-3-({5-chloro-2-[(1-methyl-1H-pyrazol-4-yl)amino]pyrimidin-4-yl}amino)bicyclo[2.2.1]heptane-2-carboxamide]: the Ki at Aurora A and on Aurora B was under 100 nM throughout. Further, the IC50 at KDR fell in the range of 100 to 1000 nM.

Take `NC(=O)[C@@H]1[C@H](Nc2nc(Nc3cnn(C4CCC4)c3)ncc2Cl)[C@H]2C=C[C@@H]1C2` [Example 118, (1S,2S,3R,4R)-3-({5-chloro-2-[(1-cyclobutyl-1H-pyrazol-4-yl)amino]pyrimidin-4-yl}amino)bicyclo[2.2.1]hept-5-ene-2-carboxamide]: the Ki on Aurora A and at Aurora B was under 100 nM in each case. Also, on KDR, the IC50 is under 100 nM.

Regarding `NC(=O)[C@H]1[C@@H]2CC[C@@H](C2)[C@H]1Nc1nc(Nc2cnn(CCO)c2)ncc1Cl` [Example 93, (1R,2S,3R,4S)-3-[(5-chloro-2-{[1-(2-hydroxyethyl)-1H-pyrazol-4-yl]amino}pyrimidin-4-yl)amino]bicyclo[2.2.1]heptane-2-carboxamide], the Ki at Aurora A and at Aurora B was under 100 nM in each case. For the same compound, at KDR, the IC50 is 100 to 1000 nM.

As for `CC(O)Cn1cc(Nc2ncc(C(F)(F)F)c(NC3C4C=CC(C4)C3C(N)=O)n2)cn1` (mixture of isomers) [Example 19, (1R,2R,3S,4S)-3-{[2-({1-[(2R)-2-hydroxypropyl]-1H-pyrazol-4-yl}amino)-5-(trifluoromethyl)pyrimidin-4-yl]amino}bicyclo[2.2.1]hept-5-ene-2-carboxamide and (1S,2S,3R,4R)-3-{[2-({1-[(2R)-2-hydroxypropyl]-1H-pyrazol-4-yl}amino)-5-(trifluoromethyl)pyrimidin-4-yl]amino}bicyclo[2.2.1]hept-5-ene-2-carboxamide], the Ki on Aurora A and at Aurora B was under 100 nM in each case. The IC50 at KDR was under 100 nM.

As for `Cc1nn(C)cc1Nc1ncc(Cl)c(N[C@H]2[C@@H](C(N)=O)[C@@H]3C=C[C@H]2C3)n1` [Example 134, (1S,2S,3R,4R)-3-({5-chloro-2-[(1,3-dimethyl-1H-pyrazol-4-yl)amino]pyrimidin-4-yl}amino)bicyclo[2.2.1]hept-5-ene-2-carboxamide], the Ki on Aurora A and at Aurora B was under 100 nM in each case. Besides, the IC50 at KDR was in the range of 100 to 1000 nM.
